According to PubChem BioAssay AID1959 (Broad Institute, 2009):
Active and inactive are the calls of the source.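 The calls were made as follows: active = growth-inhibition EC50 no more than tenfold above the top tested dose; inconclusive = flat fit between 30% and 70% inhibition, or unreliable fit; inactive = EC50 more than tenfold above the top tested dose.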

System: E. coli NEB5alpha growth, BacTiter-Glo luminescence, 4 h
Test: Escherichia coli growth inhibition, dose response, counter-screen for MEX-5/POS-1 RNA-binding inhibitor project, luminescence, NEB5alpha (AID 1959);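 also: pUC19-transformed ampicillin-resistant cells grown in LB with ampicillin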

How did the EC50 turn out when `O=c1[nH]n(-c2ncnc3c2cnn3-c2ccccc2)c(=O)c2ccccc12` was run?
The EC50 was > 11 µM (inactive).

Which EC50 does the source give for `CCN(CC)c1ccc(/C=c2/sc3nnc(-c4ccccc4C)n3c2=O)cc1` here?
The EC50 was > 11 µM (inactive).

With `COc1ccccc1NCC(=O)N/N=C/c1c(O)ccc2ccccc12` as the compound, how does the EC50 read?
Its EC50 is > 11 µM (inactive).

`Cc1ccccc1NC(=O)/C(C#N)=C\c1cc(C)n(-c2ccc(C(=O)O)cc2)c1C` was tested. Which EC50 did it give?
Its EC50 is > 11 µM (inactive).

`CCOC(=O)N1CC=C2C(C#N)=C(N)C(C#N)(C#N)[C@H](c3ccsc3)[C@H]2C1` was tested. Which EC50 did it give?
Its EC50 is > 11 µM (inactive).

Which EC50 does the source give for `Cc1n[nH]c(=O)nc1N/N=C/c1ccc(O)c([N+](=O)[O-])c1` here?
Its EC50 is > 11 µM (inactive).

Which EC50 does the source give for `COc1cc(/C=C2\CCc3c2nc2ccccc2c3C(=O)O)cc(OC)c1OC` here?
Its EC50 is > 11 µM (inactive).

For `CCC(C)(C)NC(=O)C(c1cccn1C)N(C(=O)Cn1nnc2ccccc21)c1ccc(OC)cc1` (configuration not stated), which EC50 is on record?
The EC50 was > 11 µM (inactive).

For `N#CC1=C(N)C(C#N)(C#N)C(c2cccnc2)C2COCC=C12` (configuration not stated), which EC50 is on record?
Its EC50 is > 11 µM (inactive).

How did the EC50 turn out when `CCOC(=O)COn1c(=O)c(-c2cc3ccccc3o2)[n+]([O-])c2ccccc21` was run?
The EC50 was > 11 µM (inactive).

Which EC50 does the source give for `CN1CCCc2cc3c(C(F)(F)F)cc(=O)oc3nc21` here?
Its EC50 is > 11 µM (inactive).

How did the EC50 turn out when `COc1ccc(-c2onc3ccc(C(C)=O)cc23)cc1` was run?
Its EC50 is > 11 µM (inactive).

For `CCCCn1c(O)c(/C=C2\C=Nc3ccccc32)c(=O)[nH]c1=O`, which EC50 is on record?
The EC50 was > 11 µM (inactive).

How did the EC50 turn out when `N=c1c(C(=O)NCCN2CCOCC2)cc2c(=O)n3ccccc3nc2n1CCc1ccccc1` was run?
Its EC50 is > 11 µM (inactive).

How did the EC50 turn out when `Cc1nc(S/C(=C/c2ccc(-c3ccc(Cl)cc3)o2)C(=O)O)n[nH]1` was run?
The EC50 was > 11 µM (inactive).

With `CCOC(=O)N1CCC(NC(=O)C(Cc2ccccc2)NC(=O)C2CCCCC2)CC1` (configuration not stated) as the compound, how does the EC50 read?
The EC50 was > 11 µM (inactive).

For `c1ccc(-c2nc(-c3ccccn3)nc(-c3ccccn3)n2)nc1`, which EC50 is on record?
Its EC50 is > 11 µM (inactive).

With `CC1=N/C(=C/c2ccco2)C(=O)O1` as the compound, how does the EC50 read?
The EC50 was > 11 µM (inactive).

`CCN(CC)c1ccc(/C=C2\C(=O)NC(=S)N(c3ccc(OC)cc3OC)C2=O)o1` was tested. Which EC50 did it give?
Its EC50 is > 11 µM (inactive).

`CCOCCCn1c(=NC(C)=O)c(C#N)cc2c(=O)n3ccccc3nc21` was tested. Which EC50 did it give?
Its EC50 is > 11 µM (inactive).

`COc1ccc(S(=O)(=O)Nc2ccc(O)c(Sc3ncn[nH]3)c2)cc1` was tested. Which EC50 did it give?
Its EC50 is > 11 µM (inactive).

`NC(=O)C1(N2CCCCC2)CCN(Cc2nc(-c3cccs3)no2)CC1` was tested. Which EC50 did it give?
Its EC50 is > 11 µM (inactive).

Which EC50 does the source give for `O=C(O)c1ccccc1N/N=C/c1c(Sc2nnnn2-c2ccccc2)nc2ccccn2c1=O` here?
The EC50 was > 11 µM (inactive).

For `O=C(N/N=C/c1c(O)n(Cc2ccco2)c(=O)[nH]c1=O)c1ccccc1O`, which EC50 is on record?
Its EC50 is > 11 µM (inactive).

With `CCN(CC)CCN1C(=O)c2cccc3cc(N)cc(c23)C1=O` as the compound, how does the EC50 read?
Its EC50 is > 11 µM (inactive).

`Oc1ccc(CCNc2c3ccccc3nc3ccccc23)cc1O` was tested. Which EC50 did it give?
The EC50 was > 11 µM (inactive).

Which EC50 does the source give for `CC(=NCCN1CCCCC1)c1c(O)n(-c2ccc(Cl)cc2)c(=O)[nH]c1=O` here?
Its EC50 is > 11 µM (inactive).

How did the EC50 turn out when `O=C(O)c1cc(O)c2c(c1)[C@H]([C@H]1c3cc(C(=O)O)cc(O)c3C(=O)c3c(O[C@@H]4O[C@H](CO)[C@@H](O)[C@H](O)[C@H]4O)cccc31)c1cccc(OC3O[C@H](CO)[C@@H](O)[C@H](O)[C@H]3O)c1C2=O` (some centres not stated) was run?
Its EC50 is > 11 µM (inactive).

`C(=N\Nc1nc2ccccc2[nH]1)/c1ccccn1` was tested. Which EC50 did it give?
The EC50 was > 11 µM (inactive).

How did the EC50 turn out when `COc1ccc(C2=CC3=C(Br)C(=O)C(C)(OC(=O)C4CCCC4)C(=O)C3=CO2)cc1` (configuration not stated) was run?
The EC50 was > 11 µM (inactive).

How did the EC50 turn out when `CCCSc1nnc(NC(=O)Nc2ccccc2)s1` was run?
Its EC50 is > 11 µM (inactive).

Which EC50 does the source give for `CN(C)Cc1cc(O)c(CN(C)C)cc1O` here?
Its EC50 is > 11 µM (inactive).

With `CCN(CC)c1ccc(N=Cc2c(O)n(-c3cc(OC)ccc3OC)c(=O)[nH]c2=O)cc1` as the compound, how does the EC50 read?
Its EC50 is > 11 µM (inactive).

For `N=c1c(C(=O)NCC2CCCO2)cc2c(=O)n3ccccc3nc2n1Cc1cccnc1` (configuration not stated), which EC50 is on record?
The EC50 was > 11 µM (inactive).

How did the EC50 turn out when `NC(=O)C[n+]1cccc2ccccc21` was run?
Its EC50 is > 11 µM (inactive).

For `OCCCNc1ncnc2sc3c(c12)CCN(Cc1ccccc1)C3`, which EC50 is on record?
The EC50 was > 11 µM (inactive).

`N#C/C(=C/c1ccc(CNS(=O)(=O)c2ccccc2)o1)C(=O)NCc1ccccc1` was tested. Which EC50 did it give?
The EC50 was > 11 µM (inactive).

How did the EC50 turn out when `CCN(CC)C(=O)c1cc2c(=O)c3cc(Cl)ccc3oc2nc1C` was run?
The EC50 was > 11 µM (inactive).

`CCOc1ccc2c(c1)/C(=C(\C(Cl)=C(Cl)Cl)[N+](=O)[O-])N2` was tested. Which EC50 did it give?
The EC50 was > 11 µM (inactive).

Which EC50 does the source give for `CC1C2(C)OC(=N)C(C#N)(C(C)O2)C1(C#N)C#N` (configuration not stated) here?
Its EC50 is > 11 µM (inactive).

`COc1ccc2c3c([nH]c2c1)C1CC2C(CC(O)C(OC)C2C(=O)O)CN1CC3` (configuration not stated) was tested. Which EC50 did it give?
Its EC50 is > 11 µM (inactive).

Which EC50 does the source give for `CCCn1c(N)c(N(CCOC)C(=O)Cc2ccc(S(=O)(=O)N3CCOCC3)s2)c(=O)[nH]c1=O` here?
Its EC50 is > 11 µM (inactive).

Which EC50 does the source give for `COc1c(O)cccc1[C@H](O)C1CCN(CCc2ccc(F)cc2)CC1` here?
Its EC50 is > 11 µM (inactive).

`CC1(OC(=O)c2cccs2)C(=O)C=C2C=C(c3ccc(C#N)cc3)OC=C2C1=O` (configuration not stated) was tested. Which EC50 did it give?
The EC50 was > 11 µM (inactive).

With `C=CCn1c(O)c(C=Nc2ccc(N(CC)CC)cc2)c(=O)[nH]c1=O` as the compound, how does the EC50 read?
Its EC50 is > 11 µM (inactive).

`Cn1c(=O)cc2c3c(c(N4CCCCC4)ccc31)C(=O)c1ccccc1-2` was tested. Which EC50 did it give?
The EC50 was > 11 µM (inactive).

With `C1=C(c2ccccc2)Nc2nnnn2C1c1cccs1` (configuration not stated) as the compound, how does the EC50 read?
Its EC50 is > 11 µM (inactive).

How did the EC50 turn out when `COC(=O)CCC(=O)OC1(C)C(=O)C=C2C=C(c3ccsc3)OC=C2C1=O` (configuration not stated) was run?
Its EC50 is > 11 µM (inactive).

With `O=C(O)C1Nc2c(cccc2C(F)(F)F)C2C=CCC12` (configuration not stated) as the compound, how does the EC50 read?
Its EC50 is > 11 µM (inactive).

For `CCOc1cc(C(c2c(C)[nH][nH]c2=O)c2c(C)[nH][nH]c2=O)cc([N+](=O)[O-])c1O`, which EC50 is on record?
Its EC50 is > 11 µM (inactive).

Which EC50 does the source give for `CC1=Nc2ccc(C)cc2/C1=C/c1c(N)n2nc(CC(=O)N3CCOCC3)sc2nc1=O` here?
The EC50 was > 11 µM (inactive).

With `Nc1ccc2nc(CCCO)[nH]c2c1` as the compound, how does the EC50 read?
The EC50 was > 11 µM (inactive).

With `COc1ccc(/C(C)=N/Nc2nc3ccccc3nc2C)cc1OC` as the compound, how does the EC50 read?
Its EC50 is > 11 µM (inactive).

With `Nc1nc(Sc2ccc([N+](=O)[O-])cc2[N+](=O)[O-])n[nH]1` as the compound, how does the EC50 read?
The EC50 was > 11 µM (inactive).

`O=C(NN1C(=O)c2ccccc2NC1c1ccccn1)c1ccc(Br)cc1` (configuration not stated) was tested. Which EC50 did it give?
The EC50 was > 11 µM (inactive).

Which EC50 does the source give for `O=C(Nc1ccccc1O)c1cccc(S(=O)(=O)Nc2ccccc2O)c1` here?
The EC50 was > 11 µM (inactive).

With `O=C1NC(=O)N(c2ccccc2)C(=O)/C1=C/c1coc2ccc(O)cc2c1=O` as the compound, how does the EC50 read?
Its EC50 is > 11 µM (inactive).

How did the EC50 turn out when `CCN(CC)C(=O)CSc1nnc2nnc3cc(Cl)ccc3n12` was run?
Its EC50 is > 11 µM (inactive).

With `O=C(O)c1cccc(-n2cccc2/C=C2\NC(=O)N(Cc3ccc(F)cc3)C2=O)c1` as the compound, how does the EC50 read?
The EC50 was > 11 µM (inactive).

`CC(=O)Nc1ccc(NC(=O)C(C)OC(=O)/C(C#N)=C/c2ccc(N(C)C)cc2)cc1` (configuration not stated) was tested. Which EC50 did it give?
Its EC50 is > 11 µM (inactive).

How did the EC50 turn out when `CN(C)c1ccc(N=Cc2nc(-c3ccccc3)oc2O)cc1` was run?
Its EC50 is > 11 µM (inactive).

How did the EC50 turn out when `CCN(CC)C(=O)CNc1ccc(C(F)(F)F)cc1[N+](=O)[O-]` was run?
The EC50 was > 11 µM (inactive).

With `Cc1ccc2oc(=O)c(/C=C(\O)CC(C)C)nc2c1` as the compound, how does the EC50 read?
The EC50 was > 11 µM (inactive).

How did the EC50 turn out when `Cc1ccc2sc(NNC(=O)c3cc(=O)c4ccccc4o3)nc2c1C` was run?
Its EC50 is > 11 µM (inactive).

How did the EC50 turn out when `O=C(Cc1ccccc1)Nc1ccc(N2CCOCC2)cc1N1CCOCC1` was run?
Its EC50 is > 11 µM (inactive).

Which EC50 does the source give for `CCN(CC)C(=O)c1ccc2c(c1)C1C(Cl)C(Sc3ccccc3[N+](=O)[O-])CC1C(C(=O)O)N2` (configuration not stated) here?
Its EC50 is > 11 µM (inactive).

Which EC50 does the source give for `ON=C1/C(=N\O)CC2(C/C1=N/O)OCCO2` here?
Its EC50 is > 11 µM (inactive).
